Measurements taken from article PMC11314561, “Design and Synthesis of Novel Aminoindazole-pyrrolo[2,3-b]pyridine Inhibitors of IKKα That Selectively Perturb Cellular Non-Canonical NF-κB Signalling” (Molecules, 2024).

Legend:
Experiment in all cases: kinase panel
Type in all cases: biochemical
CaMKIIδ(h) = CaMKIIδ(h) (Homo sapiens, UniProt Q13557)
Source text: (§1) We profiled three compounds from the series across the kinome (Table S1).
(§2) Ta b l e S1. The % inhibition of compounds 4, 5r [SU1261], and 6g [SU1349] against a
(§3) panel of kinase enzymes. We proϐiled three compounds from the series across 231
(§4) kinases. For SU1349, given its structural similarity with SU1261, we selected 98 from the
(§5) Tested kinase % inhibiƟon

ARK5(h) = molecular target: T1, ARK5(h) (Homo sapiens, UniProt O60285)
T1 sequence (O60285 1-661): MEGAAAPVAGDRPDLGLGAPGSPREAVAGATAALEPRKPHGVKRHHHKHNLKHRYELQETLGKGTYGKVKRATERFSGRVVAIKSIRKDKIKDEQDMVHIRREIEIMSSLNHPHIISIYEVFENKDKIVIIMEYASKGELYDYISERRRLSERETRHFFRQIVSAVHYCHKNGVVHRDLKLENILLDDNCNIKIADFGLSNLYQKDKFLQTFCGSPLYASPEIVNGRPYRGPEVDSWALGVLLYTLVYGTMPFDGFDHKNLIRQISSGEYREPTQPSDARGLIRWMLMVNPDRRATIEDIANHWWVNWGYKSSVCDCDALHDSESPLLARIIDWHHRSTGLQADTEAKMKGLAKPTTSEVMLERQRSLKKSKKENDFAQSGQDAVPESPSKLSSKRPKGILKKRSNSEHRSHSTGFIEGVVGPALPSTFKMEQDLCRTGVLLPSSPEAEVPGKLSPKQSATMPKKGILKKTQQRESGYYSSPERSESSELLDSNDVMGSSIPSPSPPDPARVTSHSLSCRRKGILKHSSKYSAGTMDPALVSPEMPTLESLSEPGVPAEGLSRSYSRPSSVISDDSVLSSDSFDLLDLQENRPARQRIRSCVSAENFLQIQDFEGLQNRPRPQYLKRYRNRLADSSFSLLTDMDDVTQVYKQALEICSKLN
Source text: as §1, §2, §3, §4, §5

Flt4(h) = Flt4(h) (Homo sapiens, UniProt P35916)
Chain of Flt4(h) (P35916 25-1363): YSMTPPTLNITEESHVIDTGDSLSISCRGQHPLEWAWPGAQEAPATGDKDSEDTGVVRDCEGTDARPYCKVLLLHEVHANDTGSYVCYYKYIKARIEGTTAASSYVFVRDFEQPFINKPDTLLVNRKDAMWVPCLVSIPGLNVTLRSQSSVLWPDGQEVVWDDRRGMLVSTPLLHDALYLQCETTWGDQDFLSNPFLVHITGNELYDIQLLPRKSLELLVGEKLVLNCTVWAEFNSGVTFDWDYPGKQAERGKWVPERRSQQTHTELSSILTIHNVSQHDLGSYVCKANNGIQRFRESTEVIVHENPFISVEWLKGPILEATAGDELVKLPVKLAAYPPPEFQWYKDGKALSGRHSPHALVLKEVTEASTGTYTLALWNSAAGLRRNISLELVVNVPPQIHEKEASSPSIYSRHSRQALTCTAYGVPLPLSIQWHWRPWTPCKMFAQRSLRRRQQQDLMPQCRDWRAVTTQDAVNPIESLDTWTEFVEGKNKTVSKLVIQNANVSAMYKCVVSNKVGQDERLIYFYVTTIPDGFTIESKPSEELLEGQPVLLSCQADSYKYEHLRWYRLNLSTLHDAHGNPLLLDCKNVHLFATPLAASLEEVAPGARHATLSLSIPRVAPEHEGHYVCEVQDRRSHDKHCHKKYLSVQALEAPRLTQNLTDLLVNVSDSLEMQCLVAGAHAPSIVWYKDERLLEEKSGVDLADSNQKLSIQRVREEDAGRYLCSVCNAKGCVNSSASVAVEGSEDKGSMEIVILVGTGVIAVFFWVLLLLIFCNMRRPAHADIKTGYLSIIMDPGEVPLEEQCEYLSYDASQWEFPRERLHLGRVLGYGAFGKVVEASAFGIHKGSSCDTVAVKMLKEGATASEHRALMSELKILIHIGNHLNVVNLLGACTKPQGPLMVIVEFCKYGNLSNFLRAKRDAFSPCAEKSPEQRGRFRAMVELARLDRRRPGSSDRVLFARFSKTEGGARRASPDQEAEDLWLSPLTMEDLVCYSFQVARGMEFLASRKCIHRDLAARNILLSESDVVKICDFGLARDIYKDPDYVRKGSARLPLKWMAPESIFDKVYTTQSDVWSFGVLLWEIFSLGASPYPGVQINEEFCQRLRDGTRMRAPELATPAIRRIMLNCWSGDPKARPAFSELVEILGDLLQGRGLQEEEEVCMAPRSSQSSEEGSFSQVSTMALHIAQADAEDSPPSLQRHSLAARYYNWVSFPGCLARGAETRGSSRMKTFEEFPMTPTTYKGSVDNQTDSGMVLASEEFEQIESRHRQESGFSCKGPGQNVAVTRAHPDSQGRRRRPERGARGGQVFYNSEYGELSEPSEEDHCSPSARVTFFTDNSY
Source text: as §1, §2, §3, §4, §5

c-RAF(h) = c-RAF(h) (Homo sapiens, UniProt P04049)
Chain of c-RAF(h) (P04049 whole entry): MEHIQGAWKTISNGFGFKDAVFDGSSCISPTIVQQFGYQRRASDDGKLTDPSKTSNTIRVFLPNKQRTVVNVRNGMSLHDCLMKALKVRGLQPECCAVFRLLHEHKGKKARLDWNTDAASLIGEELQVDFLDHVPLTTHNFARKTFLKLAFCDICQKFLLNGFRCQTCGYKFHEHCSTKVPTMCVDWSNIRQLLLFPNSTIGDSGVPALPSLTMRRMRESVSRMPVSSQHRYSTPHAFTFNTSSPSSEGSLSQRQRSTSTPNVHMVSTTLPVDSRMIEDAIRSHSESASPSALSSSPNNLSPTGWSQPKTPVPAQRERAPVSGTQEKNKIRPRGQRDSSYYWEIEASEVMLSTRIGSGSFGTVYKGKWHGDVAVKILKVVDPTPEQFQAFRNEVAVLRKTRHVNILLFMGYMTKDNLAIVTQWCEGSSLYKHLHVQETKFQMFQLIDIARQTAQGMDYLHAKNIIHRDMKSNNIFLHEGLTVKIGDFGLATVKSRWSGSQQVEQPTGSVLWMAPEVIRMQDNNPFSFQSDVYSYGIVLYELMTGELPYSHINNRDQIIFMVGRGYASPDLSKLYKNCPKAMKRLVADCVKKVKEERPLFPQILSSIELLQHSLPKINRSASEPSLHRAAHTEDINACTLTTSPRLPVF
Source text: as §1, §2, §3, §4, §5

ALK(h) = ALK(h) (Homo sapiens, UniProt Q9UM73)
Source text: as §1, §2, §3, §4, §5

TAO1(h) = molecular target: T2, TAO1(h) (Homo sapiens, UniProt Q7L7X3)
T2 sequence (Q7L7X3 1-1001): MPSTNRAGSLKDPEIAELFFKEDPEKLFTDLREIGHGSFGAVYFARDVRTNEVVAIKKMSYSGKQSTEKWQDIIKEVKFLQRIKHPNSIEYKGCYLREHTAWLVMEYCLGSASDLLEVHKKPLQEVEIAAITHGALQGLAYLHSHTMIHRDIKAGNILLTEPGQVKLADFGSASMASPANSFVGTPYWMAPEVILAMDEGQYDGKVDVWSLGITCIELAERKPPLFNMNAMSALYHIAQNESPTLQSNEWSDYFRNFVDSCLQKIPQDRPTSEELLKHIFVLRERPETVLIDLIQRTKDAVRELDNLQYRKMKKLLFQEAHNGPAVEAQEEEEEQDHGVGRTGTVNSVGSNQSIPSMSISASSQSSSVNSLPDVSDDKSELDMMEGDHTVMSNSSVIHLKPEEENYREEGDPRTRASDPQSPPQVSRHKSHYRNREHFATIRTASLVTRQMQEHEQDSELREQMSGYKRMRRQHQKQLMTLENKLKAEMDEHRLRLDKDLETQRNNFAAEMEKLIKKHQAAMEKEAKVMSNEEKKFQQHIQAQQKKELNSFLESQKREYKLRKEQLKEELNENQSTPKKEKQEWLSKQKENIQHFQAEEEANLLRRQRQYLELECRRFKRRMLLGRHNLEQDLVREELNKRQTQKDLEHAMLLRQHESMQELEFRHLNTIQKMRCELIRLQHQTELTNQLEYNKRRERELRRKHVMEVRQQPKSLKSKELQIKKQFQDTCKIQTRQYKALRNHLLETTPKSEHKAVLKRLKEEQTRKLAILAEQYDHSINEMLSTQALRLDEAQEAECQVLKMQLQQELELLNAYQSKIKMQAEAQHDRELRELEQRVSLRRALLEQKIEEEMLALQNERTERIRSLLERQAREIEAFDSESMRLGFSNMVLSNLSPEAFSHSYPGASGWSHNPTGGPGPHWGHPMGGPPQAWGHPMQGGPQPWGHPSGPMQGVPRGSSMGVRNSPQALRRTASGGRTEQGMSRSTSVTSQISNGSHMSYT
Source text: as §1, §2, §3, §4, §5

NEK2(h) = molecular target: T3, NEK2(h) (Homo sapiens, UniProt P51955)
T3 sequence (P51955 1-445): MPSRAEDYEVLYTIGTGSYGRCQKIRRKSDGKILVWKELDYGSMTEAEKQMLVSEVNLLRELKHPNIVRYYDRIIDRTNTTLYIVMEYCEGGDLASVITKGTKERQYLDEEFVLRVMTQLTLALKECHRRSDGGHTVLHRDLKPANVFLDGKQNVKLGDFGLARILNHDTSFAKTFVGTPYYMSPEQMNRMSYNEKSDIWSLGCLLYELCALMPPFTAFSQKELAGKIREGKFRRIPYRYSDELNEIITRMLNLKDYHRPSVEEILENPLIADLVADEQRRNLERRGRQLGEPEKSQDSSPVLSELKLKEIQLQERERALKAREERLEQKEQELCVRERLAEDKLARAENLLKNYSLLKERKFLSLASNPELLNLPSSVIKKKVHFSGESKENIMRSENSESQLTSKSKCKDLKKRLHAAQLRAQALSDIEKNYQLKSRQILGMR
Source text: as §1, §2, §3, §4, §5

TrkA(h) = TrkA(h) (Homo sapiens, UniProt P04629)
Chain of TrkA(h) (P04629 33-796): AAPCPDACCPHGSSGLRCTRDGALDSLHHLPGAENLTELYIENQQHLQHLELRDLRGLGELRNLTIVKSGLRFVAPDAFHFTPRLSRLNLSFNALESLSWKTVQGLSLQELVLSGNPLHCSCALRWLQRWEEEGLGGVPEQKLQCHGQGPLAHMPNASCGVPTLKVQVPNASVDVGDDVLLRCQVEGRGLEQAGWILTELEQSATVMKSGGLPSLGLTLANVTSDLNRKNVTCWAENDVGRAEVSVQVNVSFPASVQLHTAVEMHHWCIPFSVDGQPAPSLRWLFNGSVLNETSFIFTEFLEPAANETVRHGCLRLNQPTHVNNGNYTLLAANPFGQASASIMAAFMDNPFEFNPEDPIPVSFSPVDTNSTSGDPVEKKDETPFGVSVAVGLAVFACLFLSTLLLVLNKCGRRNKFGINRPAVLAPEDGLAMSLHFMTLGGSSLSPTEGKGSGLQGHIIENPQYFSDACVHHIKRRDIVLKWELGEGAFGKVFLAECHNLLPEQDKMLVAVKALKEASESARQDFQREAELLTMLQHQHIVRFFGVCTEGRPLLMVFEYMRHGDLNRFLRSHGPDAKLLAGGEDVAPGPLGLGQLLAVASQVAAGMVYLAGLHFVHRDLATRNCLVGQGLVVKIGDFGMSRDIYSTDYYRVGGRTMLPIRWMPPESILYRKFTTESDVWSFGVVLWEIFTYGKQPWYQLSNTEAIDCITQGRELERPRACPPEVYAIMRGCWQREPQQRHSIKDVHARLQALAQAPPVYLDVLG
Source text: as §1, §2, §3, §4, §5

JNK3(h) = JNK3(h) (Homo sapiens, UniProt P53779)
Chain of JNK3(h) (P53779 whole entry): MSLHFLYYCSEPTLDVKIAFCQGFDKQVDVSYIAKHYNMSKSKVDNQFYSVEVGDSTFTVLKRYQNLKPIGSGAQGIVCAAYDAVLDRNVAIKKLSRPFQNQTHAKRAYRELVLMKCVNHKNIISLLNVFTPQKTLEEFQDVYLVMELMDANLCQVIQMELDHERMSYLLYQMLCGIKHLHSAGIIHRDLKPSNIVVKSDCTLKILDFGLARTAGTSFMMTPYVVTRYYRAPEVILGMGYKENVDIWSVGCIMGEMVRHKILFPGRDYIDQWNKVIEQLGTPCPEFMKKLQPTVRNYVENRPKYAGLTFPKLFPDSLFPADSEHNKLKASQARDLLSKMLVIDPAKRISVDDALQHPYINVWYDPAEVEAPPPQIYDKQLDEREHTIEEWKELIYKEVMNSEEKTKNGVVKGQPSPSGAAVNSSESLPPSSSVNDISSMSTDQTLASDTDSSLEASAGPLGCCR
Source text: as §1, §2, §3, §4, §5

IRAK1(h) = IRAK1(h) (Homo sapiens, UniProt P51617)
Chain of IRAK1(h) (P51617 whole entry): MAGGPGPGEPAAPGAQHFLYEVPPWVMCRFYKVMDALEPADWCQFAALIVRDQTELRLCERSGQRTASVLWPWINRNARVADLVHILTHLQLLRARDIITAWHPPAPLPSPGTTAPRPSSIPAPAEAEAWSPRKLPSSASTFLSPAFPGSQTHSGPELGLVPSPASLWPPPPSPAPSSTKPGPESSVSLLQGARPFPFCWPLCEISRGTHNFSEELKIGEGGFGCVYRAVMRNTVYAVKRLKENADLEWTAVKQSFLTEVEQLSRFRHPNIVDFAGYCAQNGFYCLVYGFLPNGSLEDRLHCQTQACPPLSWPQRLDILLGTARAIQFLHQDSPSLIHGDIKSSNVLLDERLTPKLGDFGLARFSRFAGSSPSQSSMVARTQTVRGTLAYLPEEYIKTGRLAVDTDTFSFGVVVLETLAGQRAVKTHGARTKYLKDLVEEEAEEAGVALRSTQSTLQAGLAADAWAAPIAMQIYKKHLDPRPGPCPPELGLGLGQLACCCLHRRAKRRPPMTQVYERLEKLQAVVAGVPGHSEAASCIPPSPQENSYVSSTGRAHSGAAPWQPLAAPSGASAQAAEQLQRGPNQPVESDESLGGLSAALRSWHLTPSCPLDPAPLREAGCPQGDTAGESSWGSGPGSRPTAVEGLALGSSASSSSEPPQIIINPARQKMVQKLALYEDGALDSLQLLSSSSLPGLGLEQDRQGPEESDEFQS
Source text: as §1, §2, §3, §4, §5

Chain of CaMKIIδ(h) (Q13557 whole entry): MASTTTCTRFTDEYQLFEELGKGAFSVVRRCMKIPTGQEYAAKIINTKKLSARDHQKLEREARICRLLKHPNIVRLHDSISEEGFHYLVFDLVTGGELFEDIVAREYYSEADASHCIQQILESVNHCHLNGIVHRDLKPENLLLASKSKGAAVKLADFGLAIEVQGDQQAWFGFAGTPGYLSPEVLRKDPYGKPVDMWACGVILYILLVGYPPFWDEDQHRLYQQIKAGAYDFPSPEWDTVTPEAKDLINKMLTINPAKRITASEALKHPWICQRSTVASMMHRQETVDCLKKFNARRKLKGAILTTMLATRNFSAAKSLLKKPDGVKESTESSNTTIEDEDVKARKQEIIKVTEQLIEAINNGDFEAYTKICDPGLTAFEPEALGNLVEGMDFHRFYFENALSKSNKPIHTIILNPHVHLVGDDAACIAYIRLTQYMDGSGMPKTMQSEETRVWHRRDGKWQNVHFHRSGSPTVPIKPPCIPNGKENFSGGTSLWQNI

SMILES | inhibition at 1 µM (CaMKIIδ(h)) [%] | inhibition at 1 µM (ARK5(h)) [%] | inhibition at 1 µM (Flt4(h)) [%] | inhibition at 1 µM (c-RAF(h)) [%] | inhibition at 1 µM (ALK(h)) [%] | inhibition at 1 µM (TAO1(h)) [%] | inhibition at 1 µM (NEK2(h)) [%] | inhibition at 1 µM (TrkA(h)) [%] | inhibition at 1 µM (JNK3(h)) [%] | inhibition at 1 µM (IRAK1(h)) [%]
Nc1n[nH]c2ccc(-c3ccnc4[nH]c(-c5cccc(OCc6ccccc6)c5)cc34)cc12 [Compound 5r [SU1261]] | 61 | 33 | 63 | 20 | 27 | 16 | 4 | 29 | 86 | 42
Nc1n[nH]c2ccc(-c3ccnc4[nH]c(-c5ccnc(OCc6ccccc6)c5)cc34)cc12 [Compound 6g [SU1349]] | 37 | 3 | 43 | 2 | 5 | 5 | 8 | -11 | 62 | 37
Nc1n[nH]c2ccc(-c3ccnc4[nH]c(-c5ccccc5)cc34)cc12 [Compound 4] | 80 | 87 | 97 | 29 | 56 | 73 | 5 | 71 | 99 | 89
